Laboratory results published in publication PMC9090415, “Discovery of small molecule inhibitors of Plasmodium falciparum apicoplast DNA polymerase” (Journal of Enzyme Inhibition and Medicinal Chemistry, 2022).

Target: P. falciparum apicoplast DNA polymerase (Pf-apPOL) (Plasmodium falciparum, UniProt Q8ILY1)
Experiment: Fluorescence-based high-throughput DNA polymerase assay (molecular beacon), primary screen and dose-response;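 on % inhibition ApPOL 90': test concentration in µM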;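 on % inhibition apPOL 180': test concentration in µM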
Assay type: biochemical
Details: for DNA Pol: 90 min, 10 µM
Outline: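 Single-point screening used 10 µM compound with 20 nM polymerase, 20 nM hairpin substrate and 6 µM dNTPs for 90 min at 25 °C. Confirmatory titrations (2.5–80 µM) followed fluorescence at three times, and IC50 was derived from a fit including a cooperativity term n.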

Chain of P. falciparum apicoplast DNA polymerase (Pf-apPOL) (Q8ILY1 entry or part of it): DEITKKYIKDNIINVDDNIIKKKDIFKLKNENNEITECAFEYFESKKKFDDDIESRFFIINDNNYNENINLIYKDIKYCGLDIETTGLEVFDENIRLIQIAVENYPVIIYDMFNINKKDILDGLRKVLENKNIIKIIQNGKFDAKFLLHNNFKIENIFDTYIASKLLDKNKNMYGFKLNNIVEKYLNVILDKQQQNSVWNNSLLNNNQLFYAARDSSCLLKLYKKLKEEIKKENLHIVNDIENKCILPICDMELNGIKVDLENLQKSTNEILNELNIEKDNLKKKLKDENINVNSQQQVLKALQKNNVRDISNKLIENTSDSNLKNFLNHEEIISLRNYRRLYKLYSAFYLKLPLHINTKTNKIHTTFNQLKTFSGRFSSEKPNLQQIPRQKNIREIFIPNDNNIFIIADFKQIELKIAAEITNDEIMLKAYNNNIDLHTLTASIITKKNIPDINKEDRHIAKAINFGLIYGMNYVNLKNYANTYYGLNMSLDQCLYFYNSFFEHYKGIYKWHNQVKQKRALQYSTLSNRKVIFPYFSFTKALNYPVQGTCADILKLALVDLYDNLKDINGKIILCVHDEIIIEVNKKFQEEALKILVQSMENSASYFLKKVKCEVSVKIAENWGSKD

Structure (SMILES): O=C1Nc2ccc(I)cc2C1=Cc1cc(Br)c(O)c(Br)c1 [Molecule 27, Ic1ccc2c(c1)C(=Cc1cc(Br)c(c(c1)Br)O)C(=O)N2]
- DNA Pol ('DNA Pol' of the 186 hits list (screen value)): 52
- % inhibition Apo pol 10' (DRC-1, conc 2.5): -2.766%
- % inhibition Apo pol 10' (DRC-1, conc 5): 14.7903%
- % inhibition Apo pol 10' (DRC-1, conc 10): 55.8319%
- % inhibition Apo pol 10' (DRC-1, conc 20): 68.6495%
- % inhibition Apo pol 10' (DRC-1, conc 40): 74.9605%
- % inhibition Apo pol 10' (DRC-1, conc 80): 94.5024%
- % inhibition Apol 90' (DRC-1, 90', conc 2.5): -5.207%
- % inhibition Apol 90' (DRC-1, 90', conc 5): 5.358%
- % inhibition Apol 90' (DRC-1, 90', conc 10): 51.0216%
- % inhibition Apol 90' (DRC-1, 90', conc 20): 63.6894%
- % inhibition Apol 90' (DRC-1, 90', conc 40): 72.1753%
- % inhibition Apol 90' (DRC-1, 90', conc 80): 93.708%
- % inhibition apPOL 180' (DRC-1, 180', conc 2.5): -6.922%
- % inhibition apPOL 180' (DRC-1, 180', conc 5): 0.7186%
- % inhibition apPOL 180' (DRC-1, 180', conc 10): 40.1564%
- % inhibition apPOL 180' (DRC-1, 180', conc 20): 53.0871%
- % inhibition apPOL 180' (DRC-1, 180', conc 40): 65.7742%
- % inhibition apPOL 180' (DRC-1, 180', conc 80): 93.2975%
- % inhibition Apo pol 5' (DRC-2, conc 2.5): -1.67%
- % inhibition Apo pol 5' (DRC-2, conc 5): 2.85%
- % inhibition Apo pol 5' (DRC-2, conc 10): 38%
- % inhibition Apo pol 5' (DRC-2, conc 20): 54%
- % inhibition Apo pol 5' (DRC-2, conc 40): 54%
- % inhibition Apo pol 5' (DRC-2, conc 80): 54%
- % inhibition Apo pol 5' (DRC-2, concentration 20): 54%
- % inhibition Apo pol 5' (DRC-2, concentration 40): 54%
- % inhibition Apo pol 5' (DRC-2, concentration 80): 54%
- % inhibition Apol 40' (DRC-2, 40', conc 2.5): 0.385%
- % inhibition Apol 40' (DRC-2, 40', conc 5): 11%
- % inhibition Apol 40' (DRC-2, 40', conc 10): 48%
- % inhibition Apol 40' (DRC-2, 40', conc 20): 68%
- % inhibition Apol 40' (DRC-2, 40', conc 40): 71%
- % inhibition Apol 40' (DRC-2, 40', conc 80): 72%
- % inhibition Apol 40' (DRC-2, 40', concentration 5): 11%
- % inhibition Apol 40' (DRC-2, 40', concentration 10): 48%
- % inhibition Apol 40' (DRC-2, 40', concentration 80): 72%
- % inhibition ApPOL 90' (DRC-2, 90', conc 2.5): 2.27%
- % inhibition ApPOL 90' (DRC-2, 90', conc 5): 11%
- % inhibition ApPOL 90' (DRC-2, 90', conc 10): 48%
- % inhibition ApPOL 90' (DRC-2, 90', conc 20): 70%
- % inhibition ApPOL 90' (DRC-2, 90', conc 40): 74%
- % inhibition ApPOL 90' (DRC-2, 90', conc 80): 76%
- % inhibition ApPOL 90' (DRC-2, 90', concentration 5): 11%
- % inhibition ApPOL 90' (DRC-2, 90', concentration 10): 48%
- % inhibition ApPOL 90' (DRC-2, 90', concentration 80): 76%
- % inhibition apPOL 180' (DRC-2, 180', conc 2.5): 0.56%
- % inhibition apPOL 180' (DRC-2, 180', conc 5): 6%
- % inhibition apPOL 180' (DRC-2, 180', conc 10): 40%
- % inhibition apPOL 180' (DRC-2, 180', conc 20): 67%
- % inhibition apPOL 180' (DRC-2, 180', conc 40): 72%
- % inhibition apPOL 180' (DRC-2, 180', conc 80): 76%
- % inhibition apPOL 180' (DRC-2, 180', concentration 40): 72%
- % inhibition apPOL 180' (DRC-2, 180', concentration 80): 76%
- DNA Pol (primary screen value, "DNA Pol"): 52

Structure (SMILES): COc1ccc2c(c1)C(c1ccccc1OC)CC(=O)O2 (stereo not shown) [Molecule 38, COc1ccc2c(c1)C(CC(=O)O2)c1ccccc1OC]
- DNA Pol ('DNA Pol' of the 186 hits list (primary screen result), unit not given): 27
- % inhibition Apo pol 10' (DRC-1, concentration 2.5): 10.6274%
- % inhibition Apo pol 10' (DRC-1, concentration 5): 16.1295%
- % inhibition Apo pol 10' (DRC-1, concentration 10): 45.2437%
- % inhibition Apo pol 10' (DRC-1, concentration 20): 76.7316%
- % inhibition Apo pol 10' (DRC-1, concentration 40): 94.6893%
- % inhibition Apo pol 10' (DRC-1, concentration 80): 97.2345%
- % inhibition Apol 90' (DRC-1, 90', concentration 2.5): -7.663%
- % inhibition Apol 90' (DRC-1, 90', concentration 5): -2.39%
- % inhibition Apol 90' (DRC-1, 90', concentration 10): 21.9297%
- % inhibition Apol 90' (DRC-1, 90', concentration 20): 56.4964%
- % inhibition Apol 90' (DRC-1, 90', concentration 40): 89.2946%
- % inhibition Apol 90' (DRC-1, 90', concentration 80): 96.5262%
- % inhibition apPOL 180' (DRC-1, 180', concentration 2.5): -11.4597%
- % inhibition apPOL 180' (DRC-1, 180', concentration 5): -6.316%
- % inhibition apPOL 180' (DRC-1, 180', concentration 10): 13.8407%
- % inhibition apPOL 180' (DRC-1, 180', concentration 20): 46.2939%
- % inhibition apPOL 180' (DRC-1, 180', concentration 40): 87.0263%
- % inhibition apPOL 180' (DRC-1, 180', concentration 80): 96.2979%
- % inhibition Apol 40' (DRC-2, 40', concentration 10 (unit not given)): 27%
- % inhibition ApPOL 90' (DRC-2, 90', concentration 5 (unit not given)): 7%
- % inhibition apPOL 180' (DRC-2, 180', concentration 5 (unit not given)): 7%
- % inhibition Apo pol 5' (DRC-2, concentration 2.5): 6.5%
- % inhibition Apo pol 5' (DRC-2, concentration 5): 27%
- % inhibition Apo pol 5' (DRC-2, concentration 5 (unit not given)): 27%
- % inhibition Apo pol 5' (DRC-2, concentration 10): 41%
- % inhibition Apo pol 5' (DRC-2, concentration 20): 55%
- % inhibition Apo pol 5' (DRC-2, concentration 40): 64%
- % inhibition Apo pol 5' (DRC-2, concentration 80): 69%
- % inhibition Apol 40' (DRC-2, 40', concentration 2.5): -7%
- % inhibition Apol 40' (DRC-2, 40', concentration 5): 10%
- % inhibition Apol 40' (DRC-2, 40', concentration 10): 27%
- % inhibition Apol 40' (DRC-2, 40', concentration 20): 54%
- % inhibition Apol 40' (DRC-2, 40', concentration 40): 72%
- % inhibition Apol 40' (DRC-2, 40', concentration 80): 81%
- % inhibition ApPOL 90' (DRC-2, 90', concentration 2.5): -8%
- % inhibition ApPOL 90' (DRC-2, 90', concentration 5): 7%
- % inhibition ApPOL 90' (DRC-2, 90', concentration 10): 23%
- % inhibition ApPOL 90' (DRC-2, 90', concentration 20): 53%
- % inhibition ApPOL 90' (DRC-2, 90', concentration 40): 74%
- % inhibition ApPOL 90' (DRC-2, 90', concentration 80): 84%
- % inhibition apPOL 180' (DRC-2, 180', concentration 2.5): -3.79%
- % inhibition apPOL 180' (DRC-2, 180', concentration 5): 7%
- % inhibition apPOL 180' (DRC-2, 180', concentration 10): 20%
- % inhibition apPOL 180' (DRC-2, 180', concentration 20): 50%
- % inhibition apPOL 180' (DRC-2, 180', concentration 40): 75%
- % inhibition apPOL 180' (DRC-2, 180', concentration 80): 86%
- DNA Pol (primary screen value of the library well, unit not given): 27
